According to patent publication US20040203034A1 (The University of Chicago, priority 2003, published 2004):
Where two headings read alike, the source gives them in different places.

Columns and labels:
UGT1A isoforms = test: In vitro TAS-103 and SN-38 glucuronidation activity in species deficient in UGT1A isoforms; assay type: in vitro ADME; conditions: Gunn rats and CN-1 patients deficient in UGT1A isoforms
From the text: On the other hand, while isoforms of the UGT1 family are the predominate isoforms involved in TAS-103 glucuronidation, the isoform of the UGT2 family may also participate in TAS-103 glucuronidation. Failure to glucuronidate SN-38 and TAS-103 in these instances may result specifically from the genetic defect in UGT1 gene family.

UGT1A1 = biological target: T1, UGT1A1 (Homo sapiens, UniProt P22309); test: SN-38 glucuronidation assay in human liver microsomes; assay type: in vitro ADME; conditions: for SN-38 glucuronidation rate: Caucasians
T1 construct: microsomes were isolated following differential centrifugation methods; tissue Liver Tissue Procurement and Distribution System; Liver Core Bank Facility (St. Jude Children's Research Hospital); host or cells: normal human liver microsomes (n=83 donors)
T1 sequence (P22309 26-533): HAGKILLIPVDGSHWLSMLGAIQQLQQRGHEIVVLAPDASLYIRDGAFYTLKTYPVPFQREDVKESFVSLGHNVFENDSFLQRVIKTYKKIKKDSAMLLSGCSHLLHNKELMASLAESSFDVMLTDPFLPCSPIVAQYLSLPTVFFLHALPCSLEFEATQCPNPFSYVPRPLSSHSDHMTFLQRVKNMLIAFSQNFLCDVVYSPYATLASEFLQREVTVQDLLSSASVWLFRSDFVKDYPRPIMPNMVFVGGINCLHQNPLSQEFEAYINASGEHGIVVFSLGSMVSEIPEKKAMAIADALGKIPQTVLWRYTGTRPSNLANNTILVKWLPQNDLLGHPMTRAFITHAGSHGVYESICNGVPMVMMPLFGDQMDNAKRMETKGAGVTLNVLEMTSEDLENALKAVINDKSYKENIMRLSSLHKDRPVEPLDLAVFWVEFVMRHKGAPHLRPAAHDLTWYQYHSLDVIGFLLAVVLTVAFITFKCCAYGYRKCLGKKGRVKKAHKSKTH
From the text: Normal human livers (n=83) were mainly obtained from Liver Tissue Procurement and Distribution System (National Institutes of Diabetes and Digestive and Kidney Diseases, Minneapolis, Minn.). DNA was isolated by using Qiagen RNA/DNA Maxi Kit (Qiagen Inc., Valencia, Calif., USA), and microsomes were isolated following differential centrifugation methods (Purba et al., 1987). DNA and microsomes were provided by the Liver Core Bank Facility (St. Jude Children's Research Hospital) of the Pharmacogenetics of Anticancer Agents Research (PAAR) Group. In order to identify livers in which enzyme degradation occurred, liver samples consistently comprised in the 10th percentile of UGT1A1, UGT1A9 and UGT2B7 activities were sought. UGT1A9 and UGT2B7 activities were measured using specific probes (data not shown) (Ramirez et al., 2002 and Innocenti, et al., 2001). Out of eight samples within the 10th percentile of UGT1A1, only one sample was comprised within the 10th percentile of activities of the other two enzyme activities.
Samples were phenotyped by using SN-38 as a substrate for UGT1A1. The incubation mixture consisted of 5 μmol SN-38, 10 mmol MgCl2, 1 mg/ml microsomes, 0.025 mol Tris-HCl (pH 7.4) and 5 mmol UDP-GA. Samples were incubated for 30 min at 37° C. The reaction was stopped by the addition of methanol. These conditions were selected after previous optimization of the enzyme reaction (Iyer et al., 1998). Camptothecin (75 ng) was used as an internal standard. SN-38 glucuronidation was measured by HPLC (Hitachi Instruments Inc., San Jose, Calif., USA) with fluorescence detection (λ excitation=355 nm, λ emission=515 nm). A μBondapak™ C18 column (3.9×300 mm, 10 μm; Waters Corp., Milford, Mass., USA) and μBondapak™ C18 guardpak (Waters Corp.) were used. A mobile phase of […] acetonitrile/tetra-hydrofuran/0.9 mmol sodium heptanedfonic acid in 50 mmol potassium dihydrogen phosphate (pH 4) was used during the first 7 min of the run. From 7.1-25 min, the eluent consisted of 30/70 acetonitrile/5 mmol sodium heptanesulfonic acid in 50 mmol potassium dihydrogen phosphate (pH 4). The flow rate was 0.9 ml/min. […] The intra-assay variability was determined by performing 10 incubations on the same day using a pool of human liver microsomes. The inter-assay variability was evaluated by incubating a pool of human liver microsomes in triplicate on three different days. […]
UGT1A1 activity was phenotyped by measuring SN-38 glucuronidation rates of each liver as the mean±SD of a single experiment performed in triplicate. […] Moreover, trend analysis and pairwise comparisons were performed in genotypes expressed as the sum of TA repeats in both chromosomes (i.e. in samples with […] (5/6, 6/6, 5/7), 13 (6/7) and […] (7/7, 6/8, 7/8) TA repeat genotypes). […]

[1] = Pharmacokinetic analysis of irinotecan and metabolites in patient plasma; assay type: in vivo, human; conditions: for SN-38 AUC, mean / SN-38^b AUC, mean: after irinotecan; for AUC: human, plasma, 350 mg/m2, Irinotecan AUC, mean
Protocol: Venous blood for pharmacokinetic analysis was collected on day 1 of cycle 1 for pharmacokinetic analysis. Samples of 7 ml were collected into green top sodium heparinized Vacutainer® tubes prior to the infusion; 30, 60, and 90 minutes during the infusion; and 10, 20, 30, 45, and 60 minutes and 1.5, 2, 4, 6, 12, and 24 hours after the infusion. Samples were centrifuged (2500 rpm, 20 min, 4° C.) and the plasma was immediately separated, transferred as two aliquots into storage tubes, frozen at −80° C. until analysis.
The glucuronidation ratio was expressed as the ratio of the SN-38G AUC over SN-38 AUC.

patients = conditions: cited from earlier work
[2] = system: patients with solid tumors or lymphoma
solid tumors or lymphoma = test: Objective tumor response in patients given irinotecan; assay type: in vivo, human
[3] = TA indel genotype 6/6, 30 patients
[4] = TA indel genotype 6/7, 25 patients
[5] = TA indel genotype 7/7, 6 patients

Structure (SMILES): CCc1c2c(nc3ccc(O)cc13)-c1cc3c(c(=O)n1C2)COC(=O)[C@]3(O)CC [SN-38, 7-ethyl-10-hydroxycamptothecin]
- in vitro glucuronidation compared to healthy liver donors (UGT1A isoforms): no in vitro glucuronidation
- coefficient of variation of SN-38 glucuronidation (UGT1A1; 83 human liver microsomes): 46%
- range in SN-38 glucuronidation (UGT1A1; 83 human liver microsomes): 10 fold
- SN-38 glucuronidation rate (UGT1A1; I/I haplotype pairs): 2.53±0.82 SN-38G/IS
- SN-38 glucuronidation rate (UGT1A1; I/II haplotype pairs): 2.06±0.74 SN-38G/IS
- Glucuronidation Ratio (SN-38G AUC/SN-38 AUC), mean [1, 3]: 6.52
- SN-38 AUC, mean [1, 3]: 335.9 ng·h/mL
- SN-38^b AUC, mean [1, 3]: 1954.2 ng·h/mL
- Glucuronidation Ratio (SN-38G AUC/SN-38 AUC), mean [1, 4]: 5.55
- SN-38 AUC, mean [1, 4]: 458.4 ng·h/mL
- SN-38^b AUC, mean [1, 4]: 1887.9 ng·h/mL
- Glucuronidation Ratio (SN-38G AUC/SN-38 AUC), mean [1, 5]: 3.59
- SN-38 AUC, mean [1, 5]: 542.0 ng·h/mL
- SN-38^b AUC, mean [1, 5]: 1819.1 ng·h/mL

Structure (SMILES): CN(C)CCNc1nc2cc(O)ccc2c2c1C(=O)c1ccccc1-2.Cl.Cl [TAS-103, 6-[[2-(dimethylamino)ethyl]amino]-3-hydroxy-7H-indeno[2,1-c]quinoline-7-one dihydrochloride]
- lower glucuronidation rate in vitro compared to healthy liver donors (UGT1A isoforms): ~80%

Structure (SMILES): CCc1c2c(nc3ccc(OC(=O)N4CCC(N5CCCCC5)CC4)cc13)-c1cc3c(c(=O)n1C2)COC(=O)[C@]3(O)CC [irinotecan, 7-ethyl-10-[4-(1-piperidino)-1-piperidino]carbonyloxycamptothecin]
- patients experiencing grade 3-4 neutropenia (patients; both weekly and three-weekly regimens): 30-40%
- grade 3-4 diarrhea, share of patients (patients; early single agent trials (Negoro 1991; Rothenberg 1993)): about one third
- frequency of grade 3-4 diarrhea (patients; three-weekly regimen (Fuchs et al., 2003)): 19%
- mortality rate (patients; three-weekly single agent regimen (Fuchs et al., 2003)): 1.6%
- frequency of grade 3-4 diarrhea (patients; weekly schedule (Fuchs et al., 2003)): 36%
- mortality rate (patients; weekly single agent regimen (Fuchs et al., 2003)): 5.3%
- frequency of grade 4 neutropenia ([2]; TA indel genotype 6/6 (0/30), cycle 1): 0%
- frequency of grade 4 neutropenia ([2]; TA indel genotype 6/7 (3/24), cycle 1): 12.5%
- frequency of grade 4 neutropenia ([2]; TA indel genotype 7/7 (3/6), cycle 1): 50%
- frequency of grade 4 neutropenia ([2]; all assessable patients, cycle 1, 350 mg/m2 i.v. every 3 weeks): 9.5%
- frequency of grade 3 diarrhea ([2]; all patients, cycle 1): 5%
- grade 4 diarrhea ([2]; all patients, cycle 1): no instances
- toxic death ([2]; neutropenia-related sepsis, 7/7 genotype, died on day 11): One toxic death
- patients with grade 4 neutropenia ([2]; out of the 7 patients with total bilirubin higher than 0.7 mg/dl): 4
- cases of grade 4 neutropenia ([2]; patients with pretreatment total bilirubin less than 0.6 mg/dl): No cases
- objective responses (solid tumors or lymphoma; 60 patients assessable for response): three objective responses
- partial response, patients (solid tumors or lymphoma; colorectal and head and neck cancer, 6/7 genotype): Two patients
- complete response, patients (solid tumors or lymphoma; colorectal cancer, 6/6 genotype): One colorectal cancer patient
- AUC ([1]; intravenous, TA indel genotype 6/7, 25 patients): 26100 ng·h/mL
- AUC ([1]; intravenous, TA indel genotype 7/7, 6 patients): 25400 ng·h/mL
- AUC ([1]; iv, TA indel genotype 6/6, 30 patients, 350 mg/m2 90 minute i.v. infusion): 24400 ng·h/mL
